Results as given in patent US8343912B2, “Antibiotic compositions for the treatment of gram negative infections” (priority 2008, dated 2013).
Marks after values point to notes of the source that are not given here. Numbered stars: 1 amine (or outer) side, 2 acyl side, 3 side chain; on linkers, the order of the positions; unused ones are H or OH. Bridge positions count the residues as written; N and C are the ends. Square brackets hold non-standard residues; d marks the D form. Peptide text beside a SMILES is read from it. * marks the point of attachment. Octanoyl(6-Me) = CCC(C)CCCCC(=O)*; NH(2-ClPh) = Clc1ccccc1N*; Dab = NCC[CH](N)C(=O)O; CO = O=C([*:1])[*:2]

Columns and labels:
[1] = Pharmacokinetics/toxicokinetics in repeat-dose studies; type: in vivo, cynomolgus monkey
Experimental: Monkeys were dosed twice or three times daily for seven days with control article (0.9% Sodium Chloride for Injection, USP), 25000 IU/kg Compound 5, 37500 IU/kg Compound 5, or 37500 IU/kg PMB (Alpharma, lot number A1411079). Each administration was given via a targeted 30-minute intravenous infusion.
The following parameters were evaluated: daily clinical observations and qualitative food consumption, body weight (twice prior to the first dosing and at necropsy), urinalysis, hematology, coagulation, serum chemistry, toxicokinetics, gross pathology, organ weights, and histopathology of the kidneys and injection sites, and of the liver and sciatic nerves of control and high dose groups. Animals were evaluated through Study Day 7 and then terminated.
At higher dose levels, a slightly greater than dose-proportional response was evident in systemic exposure (AUC) and peak plasma concentrations (Cmax). The decrease in clearance at these higher doses may explain the non-linear systemic exposure to Compound 5.

pH of aqueous solution = type: physicochemical; details: at 5 mg/mL in water
Hygroscopicity = type: physicochemical
A. baumannii #1570 = assay: Thigh infection in neutropenic mice; type: in vivo; details: for Log10 CFU/mL thigh homogenate ± SD: thighs at 24 h; for ED−3log10 (dose for 3 log10 reduction in bacterial count vs water): thigh infection, sc, Compound 5 value corrected for lot potency 711 μg/mg
Experimental: Infections were induced in neutropenic mice by […] the left thigh of each mouse. Compound 5, or a comparator drug, either polymyxin B, colistin or imipenem, were administered subcutaneously at 1 hour and 6 hours post-infection. Eighteen hours after the last treatment, mice were euthanized humanely; the infected thighs were removed, homogenized, serially diluted, and plated on agar. The bacterial burden was then quantitated by colony count. Compound 5, polymyxin B, colistin, and imipenem were evaluated for their ability to decrease the bacterial burden in the infected thighs compared with water-treated control mice.
All the test compounds were dissolved in sterile water for administration by subcutaneous (sc) injection. A series of dilutions of test compounds were prepared in sterile water.
Mice were made neutropenic by ip administration with 150 mg/kg cyclophosphamide on day-4, followed by a second ip dose of 100 mg/kg cyclophosphamide on day-1. A diluted exponential-phase growing culture of A. baumannii #1570 corresponding to 1×10^7 or 5×10^4 CFU respectively, in 0.2 mL of sterile saline, was injected into the left thigh of conscious mice on day 0. The actual concentration of bacteria in the inoculum was confirmed by determination of viable counts by dilution plating on tryptic soy agar plates. The number of CFU of bacteria was determined after an incubation of 16 hours at 37° C.
Groups of five mice were used for each dose of the test compounds and the vehicle. Each group received sc injections of test compounds or vehicle at 1 hour post-infection, and then at 6 hours post-infection for a total of 2 doses. In each study, there were three to five dose groups per test compound. Eighteen hours after the last injection, the mice were euthanized by asphyxiation with CO2. The left thighs were removed aseptically, homogenized in 4 mL of distilled water and dilution plated on tryptic soy agar plates to quantify bacterial CFU. The number of CFU of bacteria in thighs was determined after an incubation of 16 hours at 37° C. (the CFU per milliliter of homogenate).
The results were expressed as the geometric mean log10 CFU/mL±the standard deviation. The limit of detection was 10 CFU per mL of thigh homogenate. Thighs were considered sterile when no CFU were detected on the agar. The efficacy of the test compounds was assessed by comparing the number of log10 CFU/mL measured in the treated mice with control animals treated with vehicle (water). The efficacy of Compound 5 was also compared with the positive comparator antibiotics polymyxin B, colistin and imipenem-cilastatin.
Dose response curves of test compounds were generated for each isolate. Regression lines were generated using Microsoft Excel to calculate the dose administered twice daily (BID) predicted to produce a 3 log10 reduction in bacterial count as compared to the water-treated control group [ED−3 log 10 (mg/kg, sc, BID)].

[2] = test system: indole-positive Proteae, P. mirabilis, and S. marcescans; assay: In vitro activity against organisms intrinsically resistant to colistin; type: cell-based
Experimental: To evaluate the potency and spectrum of compounds of Formula (I), (i.e., Compounds designated 5 and 6), a study was conducted that put together a panel of 455 Gram negative strains, which included multi-drug resistant clinical isolates selected from various surveillance programs. Table 3A lists the strains that were included in the study and the activity of Compound 5, Compound 6, and colistin (polymyxin E, abbreviated PME). Strains with acquired resistance to colistin and/or carbapenems and/or broad spectrum cephalosporins were pre-selected and included in all organism groups evaluated.
MIC testing was performed according to Clinical and Laboratory Standards Institute (CLSI) M7-A7 (2006) broth microdilution methods. Unless otherwise indicated, MIC values are provided in units of micrograms per milliliter.

[3] = 2.0 mg/kg BID sc, 1 and 6 h post-infection, water control 7.75

| SMILES | volume of distribution ([1]; all species) | clearance (CL) ([1]; cynomolgus monkey, in vivo) | pH (pH of aqueous solution) | logP (Lipophilicity (Log P)) | fraction unbound (Serum protein binding) | Hygroscopicity (Hygroscopicity) | Log10 CFU/mL thigh homogenate ± SD (A. baumannii #1570; [3]) | Log10 CFU/mL thigh homogenate ± SD (A. baumannii #1570; 4.0 mg/kg BID sc) | Log10 CFU/mL thigh homogenate ± SD (A. baumannii #1570; 8.0 mg/kg BID sc) | Log10 CFU/mL thigh homogenate ± SD (A. baumannii #1570; 12.0 mg/kg BID sc) | ED−3log10 (dose for 3 log10 reduction in bacterial count vs water) (A. baumannii #1570) | activity against organisms intrinsically resistant to colistin [2] | maximal plasma concentrations (Cmax) relative to Compound 5 ([1]; greater, Day 1, 37,500 IU/kg) | systemic exposure (AUC) relative to Compound 5 ([1]; greater, same activity-normalized dose) | systemic clearance relative to Compound 5 ([1]; less, Day 1) | volume of distribution relative to Compound 5 ([1]; lower) |
| --- | --- | --- | --- | --- | --- | --- | --- | --- | --- | --- | --- | --- | --- | --- | --- | --- |
| CC(C)C[C@@H]1NC(=O)[C@@H](Cc2ccccc2)NC(=O)[C@H](CCN)NC(=O)[C@@H](NC(=O)[C@H](CCN)NC(=O)[C@@H](NC(=O)[C@H](CCN)NC(=O)Nc2ccccc2Cl)[C@@H](C)O)CCNC(=O)[C@H]([C@@H](C)O)NC(=O)[C@H](CCN)NC(=O)[C@H](CCN)NC1=O [Compound 5, (S)-4-amino-N-((2S,3R)-1-((S)-4-amino-1-oxo-1-((3S,6S,9S,12S,15R,18S,21S)-6,9,18-tris(2-aminoethyl)-15-benzyl-3-((R)-1-hydroxyethyl)-12-isobutyl-2,5,8,11,14,17,20-heptaoxo-1,4,7,10,13,16,19-heptaazacyclotricosan-21-ylamino)butan-2-ylamino)-3-hydroxy-1-oxobutan-2-yl)-2-(3-(2-chlorophenyl)ureido)butanamide] ({NH(2-ClPh)-CO}-[Dab]T[Dab][Dab][Dab][dF]L[Dab][Dab]T; lactam 4-C) | greater than blood volume | less than hepatic blood flow | 5.9, at 5 mg/mL in water | < -1 | ~0.7 | Very hygroscopic | 6.93 ± 0.56 Log10 CFU/mL | 6.64 ± 0.55 Log10 CFU/mL | 5.06 ± 0.80 Log10 CFU/mL | 3.97 ± 0.34 Log10 CFU/mL | 6.4^b mg/kg, BID | limited activity | – | – | – | – |
| CCC(C)CCCCC(=O)NC(CCN)C(=O)NC(C(=O)NC(CCN)C(=O)NC1CCNC(=O)C(C(C)O)NC(=O)C(CCN)NC(=O)C(CCN)NC(=O)C(CC(C)C)NC(=O)C(Cc2ccccc2)NC(=O)C(CCN)NC1=O)C(C)O (stereo not shown) [Polymyxin B, polymyxin B, reference compound] ({Octanoyl(6-Me)}-[Dab]T[Dab][Dab][Dab]FL[Dab][Dab]T; lactam 4-C; configuration not given here) | – | – | – | – | ~0.44 | – | 6.04 ± 1.10 Log10 CFU/mL | 4.94 ± 1.03 Log10 CFU/mL | 4.07 ± 0.41 Log10 CFU/mL | 4.19 ± 0.59 Log10 CFU/mL | 4.8 mg/kg, BID | – | approximately 2 fold | 2.5 fold | 2 to 3 fold | approximately 2 fold |
